Results taken from patent US8980829B2, “Aryl glycoside compound, preparation method and use thereof” (Shanghai Yingli Science and Technology Co., Ltd, priority 2011, dated 2015).

Experiments:
human SGLT2 = human SGLT2 (Homo sapiens (Human), UniProt P31639); experiment: Uptake assay of [14C]-AMG in Flp-In CHO cells stably expressing human SGLT2; assay type: cell-based; settings: for IC50: [14C]-AMG uptake, Flp-In CHO cells expressing human SGLT2, 1 hour at 37° C., n = 1-4; for Selectivity (SGLT1/SGLT2): ratio SGLT1 IC50 / SGLT2 IC50;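 as to all read-outs here: uptake in Na+ containing KRH buffer with compounds added in 1% DMSO, radioactivity of lysed cells read by scintillation counting, SGLT1 tested the same way in matching Flp-In CHO cells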
human SGLT1 = human SGLT1 (Homo sapiens (Human), UniProt P13866); experiment: Uptake assay of [14C]-AMG in Flp-In CHO cells stably expressing human SGLT1; assay type: cell-based; settings: [14C]-AMG uptake, Flp-In CHO cells expressing human SGLT1, 1 hour at 37° C., n = 1-4;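 also: uptake run in sodium-containing KRH buffer with compounds added in DMSO (1% final), cell radioactivity read by scintillation counting after lysis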
C57 mice = experiment: Urinary glucose excretion test; assay type: in vivo; settings: adult C57 mice, 10 mg/kg, 24-hours urine collection, average of 6 mice
Experimental: Urinary Glucose Excretion Test
Adult C57 mice administered the test compound (10 mg/kg) were placed in metabolism cages for 24-hours urine collection, and measure the total volume of urine. When the urine samples had been collected, they were immediately frozen in a −20° C. refrigerator, followed by detecting the glucose concentration in urine. Finally, the total glucose in animal urine was calculated according to the total urine volume. It was then converted into urinary glucose excretion (mg) per 200 g of body weight within 24 hours according to the weight of mice.

Chain of human SGLT2 (P31639 whole entry): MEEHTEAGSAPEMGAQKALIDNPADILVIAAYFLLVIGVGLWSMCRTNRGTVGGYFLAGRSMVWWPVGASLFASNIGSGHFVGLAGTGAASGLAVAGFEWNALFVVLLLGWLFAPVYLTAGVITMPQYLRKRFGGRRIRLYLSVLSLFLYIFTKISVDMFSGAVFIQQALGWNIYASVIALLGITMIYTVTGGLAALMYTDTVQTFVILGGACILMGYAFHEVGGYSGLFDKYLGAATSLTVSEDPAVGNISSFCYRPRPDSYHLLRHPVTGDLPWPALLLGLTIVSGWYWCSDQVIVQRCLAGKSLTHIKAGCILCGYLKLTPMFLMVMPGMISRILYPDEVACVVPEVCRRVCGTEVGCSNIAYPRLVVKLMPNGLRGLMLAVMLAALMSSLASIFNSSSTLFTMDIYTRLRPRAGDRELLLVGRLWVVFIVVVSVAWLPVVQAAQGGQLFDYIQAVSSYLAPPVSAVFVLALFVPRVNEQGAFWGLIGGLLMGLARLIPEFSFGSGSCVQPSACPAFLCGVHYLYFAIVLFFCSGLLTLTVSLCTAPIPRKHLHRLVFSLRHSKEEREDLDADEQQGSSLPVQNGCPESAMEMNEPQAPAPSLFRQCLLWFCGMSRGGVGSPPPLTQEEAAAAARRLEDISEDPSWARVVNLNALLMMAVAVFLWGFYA
Chain of human SGLT1 (P13866 whole entry): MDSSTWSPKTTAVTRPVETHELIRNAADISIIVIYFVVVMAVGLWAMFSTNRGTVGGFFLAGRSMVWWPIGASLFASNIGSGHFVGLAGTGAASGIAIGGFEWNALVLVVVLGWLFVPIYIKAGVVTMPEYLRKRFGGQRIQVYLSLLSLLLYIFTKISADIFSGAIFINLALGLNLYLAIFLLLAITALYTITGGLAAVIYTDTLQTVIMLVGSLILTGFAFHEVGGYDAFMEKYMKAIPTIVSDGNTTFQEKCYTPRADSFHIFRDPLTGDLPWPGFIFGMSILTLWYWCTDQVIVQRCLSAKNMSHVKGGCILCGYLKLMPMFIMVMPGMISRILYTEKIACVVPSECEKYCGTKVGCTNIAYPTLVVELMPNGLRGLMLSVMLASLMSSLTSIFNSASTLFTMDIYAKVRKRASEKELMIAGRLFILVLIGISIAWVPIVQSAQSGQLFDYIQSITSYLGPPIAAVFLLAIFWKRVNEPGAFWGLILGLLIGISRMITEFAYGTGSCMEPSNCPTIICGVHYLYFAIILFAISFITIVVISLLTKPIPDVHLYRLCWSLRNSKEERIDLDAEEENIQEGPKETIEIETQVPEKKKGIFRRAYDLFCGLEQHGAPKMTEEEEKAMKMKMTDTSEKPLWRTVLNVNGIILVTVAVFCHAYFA

| IC50 (human SGLT2) [nM] | Selectivity (SGLT1/SGLT2) (human SGLT2) | IC50 (human SGLT1) [nM] | Compound | Urine Glucose Excretion (mg/200 g BW/24 h) (C57 mice) |
| --- | --- | --- | --- | --- |
| 7.4 | 176 | 1300 | OC[C@H]1O[C@@H](c2ccc(Cl)c(Cc3ccc(OCCC4CSC4)cc3)c2)[C@H](O)[C@@H](O)[C@@H]1O [Compound 10] | 740 |
| 6.8 | 150 | 1020 | [O-][S+]1CC(CCOc2ccc(Cc3cc([C@@H]4O[C@H](CO)[C@@H](O)[C@H](O)[C@H]4O)ccc3Cl)cc2)C1 (some centres unmarked) [Compound 11] |  |
| 6.5 | 320 | 2080 | OC[C@H]1O[C@@H](c2ccc(Cl)c(Cc3ccc(OCC4(F)COC4)cc3)c2)[C@H](O)[C@@H](O)[C@@H]1O [Compound 12] | 1323 |
| 28.7 | 96 | 2760 | CC(C)(C)OC(=O)N1CC(COc2ccc(Cc3cc([C@@H]4O[C@H](CO)[C@@H](O)[C@H](O)[C@H]4O)ccc3Cl)cc2)C1 [Compound 13] |  |
| 8.4 | 93 | 785 | OC[C@H]1O[C@@H](c2ccc(Cl)c(Cc3ccc(OCC4CNC4)cc3)c2)[C@H](O)[C@@H](O)[C@@H]1O [Compound 14] |  |
| 23.6 | 62 | 1460 | CN1CC(COc2ccc(Cc3cc([C@@H]4O[C@H](CO)[C@@H](O)[C@H](O)[C@H]4O)ccc3Cl)cc2)C1 [Compound 15] |  |
| 8.1 | 306 | 2480 | OC[C@H]1O[C@@H](c2ccc(Cl)c(Cc3ccc(CC4(F)COC4)cc3)c2)[C@H](O)[C@@H](O)[C@@H]1O [Compound 16] | 1441 |
| 6.4 | 73 | 469 | CC(=O)N1CC(COc2ccc(Cc3cc([C@@H]4O[C@H](CO)[C@@H](O)[C@H](O)[C@H]4O)ccc3Cl)cc2)C1 [Compound 17] | 180 |
| 22 | 111 | 2450 | OC[C@H]1O[C@@H](c2ccc(Cl)c(Cc3ccc(OCC4CN(C5COC5)C4)cc3)c2)[C@H](O)[C@@H](O)[C@@H]1O [Compound 18] |  |
| 97.2 | 21 | 1990 | OC[C@H]1O[C@@H](c2ccc(Cl)c(Cc3ccc(OCC4CN(c5ccc(F)cc5)C4)cc3)c2)[C@H](O)[C@@H](O)[C@@H]1O [Compound 19] |  |
| 1.7 | 2911 | 4950 | OC[C@H]1O[C@@H](c2ccc(Cl)c(Cc3ccc(OCCCC4COC4)cc3)c2)[C@H](O)[C@@H](O)[C@@H]1O [Compound 22] |  |

Second part, the compound before the results:

| Compound | IC50 (human SGLT2) [nM] | Selectivity (SGLT1/SGLT2) (human SGLT2) | IC50 (human SGLT1) [nM] | Urine Glucose Excretion (mg/200 g BW/24 h) (C57 mice) |
| --- | --- | --- | --- | --- |
| OC[C@H]1O[C@@H](c2ccc(Cl)c(Cc3ccc(OCC4CCO4)cc3)c2)[C@H](O)[C@@H](O)[C@@H]1O (single isomer, unassigned) [Compound 2] | 8.7 | 188 | 1640 |  |
| OC[C@H]1O[C@@H](c2ccc(Cl)c(Cc3ccc(OCC4CCO4)cc3)c2)[C@H](O)[C@@H](O)[C@@H]1O (single isomer, unassigned) [Compound 3] | 11.4 | 201 | 2290 |  |
| OC[C@H]1O[C@@H](c2ccc(Cl)c(Cc3ccc(OCC4CCO4)cc3)c2)[C@H](O)[C@@H](O)[C@@H]1O (single isomer, unassigned) [Compound 4] | 4.9 | 295 | 1450 |  |
| OC[C@H]1O[C@@H](c2ccc(Cl)c(Cc3ccc(OCC4COC4)cc3)c2)[C@H](O)[C@@H](O)[C@@H]1O [Compound 1] | 5.6 | 471 | 2640 | 1333 |
| CC1(COc2ccc(Cc3cc([C@@H]4O[C@H](CO)[C@@H](O)[C@H](O)[C@H]4O)ccc3Cl)cc2)COC1 [Compound 5] | 8.3 | 95 | 792 | 1050 |
| OC[C@H]1O[C@@H](c2ccc(Cl)c(Cc3ccc(CC4COC4)cc3)c2)[C@H](O)[C@@H](O)[C@@H]1O [Compound 6] | 9.6 | 312 | 3000 | 735 |
| OC[C@H]1O[C@@H](c2ccc(Cl)c(Cc3ccc(CCC4COC4)cc3)c2)[C@H](O)[C@@H](O)[C@@H]1O [Compound 7] | 8.5 | 124 | 1060 |  |
| OC[C@H]1O[C@@H](c2ccc(Cl)c(Cc3ccc(OCCC4COC4)cc3)c2)[C@H](O)[C@@H](O)[C@@H]1O [Compound 8] | 1.7 | 547 | 930 |  |
| OC[C@H]1O[C@@H](c2ccc(Cl)c(Cc3ccc(OCCC4(F)COC4)cc3)c2)[C@H](O)[C@@H](O)[C@@H]1O [Compound 9] | 7.5 | 159 | 1190 | 1079 |
| OC[C@H]1O[C@@H](c2ccc(Cl)c(Cc3ccc(OCC4(CF)COC4)cc3)c2)[C@H](O)[C@@H](O)[C@@H]1O [Compound 20] | 3.7 | 690 | 2550 | 751 |
| OC[C@H]1O[C@@H](c2ccc(Cl)c(Cc3ccc(OCCCC4(F)COC4)cc3)c2)[C@H](O)[C@@H](O)[C@@H]1O [Compound 23] | 1.1 | 1089 | 1200 | 1198 |
| CCOc1ccc(Cc2cc([C@@H]3O[C@H](CO)[C@@H](O)[C@H](O)[C@H]3O)c(OCC3(F)COC3)cc2Cl)cc1 [Compound 24] | 12 | 1424 | 17100 |  |
| CCOc1ccc(Cc2cc([C@@H]3O[C@H](CO)[C@@H](O)[C@H](O)[C@H]3O)c(OCCCC3(F)COC3)cc2Cl)cc1 [Compound 25] | 12.3 | 1559 | 18800 |  |
| CCOc1ccc(Cc2cc([C@@H]3O[C@H](CO)[C@@H](O)[C@H](O)[C@H]3O)c(OCC3CNC3)cc2Cl)cc1 [Compound 26] | 69.4 | 28 | 1950 |  |
| OC[C@H]1O[C@@H](c2ccc(Cl)c(Cc3ccc(OC4CCOC4)cc3)c2)[C@H](O)[C@@H](O)[C@@H]1O (some centres unmarked) [EMPAGLIFLOZIN, reference compound] |  |  |  | 1197 |
